# Assay results as given in patent US20040067592A1, “Process for controlling microbial contamination of polymeric emulsions using carbon dioxide detection” (priority 2002, published 2004).
# Structures can show the parent of a compound that is named as a salt.
# Experiments:
# [1] = test system: Gluconoacetobacter liquefaciens; assay: Dilution plate count on potato dextrose agar of inoculated AIRFLEX 400 emulsion after biocide addition; type: cell-based
# Description: (§1) In an effort to determine the efficacy of carbon dioxide measurement as a detection mechanism for microbial growth, AIRFLEX 400 (1600 grams) poly(vinyl alcohol) stabilized (some biocide present) vinyl acetate/ethylene polymeric emulsion was inoculated with Gluconoacetobacter liquefaciens. The resulting concentration of Gluconoacetobacter liquefaciens in the Airflex 400 emulsion was measured via a dilution plate count on potato dextrose agar and found to be 5.4×10^4 cfu/ml. The contaminated emulsion was placed in a 2L plastic Nalgene container. The modified cover, equipped with the carbon dioxide sensor and vent hole, described in Example 1 was tightly screwed on. The headspace carbon dioxide level began rising above background (˜400 ppm) within a matter of minutes. After continually monitoring this sample for 2 days, the headspace carbon dioxide concentration leveled out at about 1600 ppm.
# (§2) The sample was then monitored for headspace carbon dioxide concentration as described in Examples 1 and 2. After continually monitoring this sample for 2 days the headspace carbon dioxide concentration leveled out at about 1150 ppm. A sample of the AIRFLEX 400 poly(vinyl alcohol) stabilized vinyl acetate/ethylene polymeric emulsion was removed from the container and the concentration of Gluconoacetobacter liquefaciens was measured on potato dextrose agar using a dilution plate count method.
# as §2, with “To the same contaminated sample described in Example 3 was added an additional 375 ppm DGH to further reduce the Gluconoacetobacter liquefaciens concentration. The” for “The”, “for 3” for “for 2”, “about 1000” for “about 1150”
# as §2, with “To the same contaminated sample described in Example 4 was added an additional 350 ppm DGH to further reduce the Gluconoacetobacter liquefaciens concentration. The” for “The”, “for 3” for “for 2”, “about 800” for “about 1150”, “400” for “400 poly(vinyl alcohol) stabilized vinyl acetate/ethylene polymeric”
# [2] = test system: Gluconoacetobacter liquefaciens; assay: Headspace carbon dioxide concentration over inoculated AIRFLEX 400 emulsion after biocide addition; type: cell-based
# From the text: Sterile AIRFLEX® 400 (1600 grams) poly(vinyl alcohol) stabilized vinyl acetate/ethylene polymeric emulsion was placed in a 2L plastic Nalgene container. The plastic cover was modified with two ports. The first port was used to mount and insert the carbon dioxide sensor and the second, much smaller diameter port was left open to the atmosphere to permit venting and a constant pressure within the container. A Vaisala GMT222 direct reading carbon dioxide transmitter connected to a data logger and computer was used as the measuring device. The cover was then screwed on tightly and the headspace carbon dioxide concentration measured over the course of 3 days. During this entire monitoring period the headspace carbon dioxide concentration remained steady at approximately 400 ppm.
# as §1
# To the same contaminated sample described in Example 2 was added 400 ppm of dodecylguanidine hydrochloride (DGH) biocide to reduce the Gluconoacetobacter liquefaciens concentration.
# as §2
# as §2, with “To the same contaminated sample described in Example 3 was added an additional 375 ppm DGH to further reduce the Gluconoacetobacter liquefaciens concentration. The” for “The”, “for 3” for “for 2”, “about 1000” for “about 1150”
# as §2, with “To the same contaminated sample described in Example 4 was added an additional 350 ppm DGH to further reduce the Gluconoacetobacter liquefaciens concentration. The” for “The”, “for 3” for “for 2”, “about 800” for “about 1150”, “400” for “400 poly(vinyl alcohol) stabilized vinyl acetate/ethylene polymeric”
# [3] = Example 3, biocide 400 ppm, time 24 hour
# [4] = Example 4, biocide 375 ppm (additional), time 96 hour
# [5] = Example 5, biocide 350 ppm (additional), time 96 hour
smiles,measurement,setting,value
"CCCCCCCCCCCCNC(=N)N [DGH, dodecylguanidine hydrochloride]",Gluconoacetobacter liquefaciens contamination level,"[1]; Example 3: 400 ppm DGH added to contaminated AIRFLEX 400 (5.4×10^4 cfu/ml before), after 2 days",1.30×10^4 cfu/ml
same,Contamination,[1]; [3],1.3 × 10^4 CFU/ml
same,Gluconoacetobacter liquefaciens contamination level,"[1]; Example 4: additional 375 ppm DGH added to Example 3 sample (400 ppm DGH), after 3 days",4.40×10^3 cfu/ml
same,Contamination,[1]; [4],4.4 × 10^3 CFU/ml
same,Gluconoacetobacter liquefaciens contamination level,"[1]; Example 5: additional 350 ppm DGH added to Example 4 sample (400 + 375 ppm DGH), after 3 days",3.20×10^2 cfu/ml
same,Contamination,[1]; [5],3.2 × 10^2 CFU/ml
same,headspace carbon dioxide concentration leveled out,"[2]; Example 3: 400 ppm DGH added to contaminated AIRFLEX 400 (5.4×10^4 cfu/ml, 1600 ppm CO2 before), monitored 2 days, background ~400 ppm",about 1150 ppm
same,CO2,[2]; [3],1150 ppm
same,headspace carbon dioxide concentration leveled out,"[2]; Example 4: additional 375 ppm DGH added to Example 3 sample (400 ppm DGH), monitored 3 days",about 1000 ppm
same,CO2,[2]; [4],1000 ppm
same,headspace carbon dioxide concentration leveled out,"[2]; Example 5: additional 350 ppm DGH added to Example 4 sample (400 + 375 ppm DGH), monitored 3 days",about 800 ppm
same,CO2,[2]; [5],800 ppm
